# Experimental data reported in the supplement of paper PMC11451515.
# Test system: P12-Ichikawa
# Assay: cell viability relative to DMSO control; higher = less cytotoxic
# Settings: 48 h
# In short: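 NOMO1 or SEM cells were plated at 500 cells/well and P12-Ichikawa cells at 1000 cells/well in 1536-well plates (5 μl), after each leukemia line had been adapted for at least four passages in each medium. Pin dosing delivered library compounds in DMSO at 11 threefold concentrations, 47 μM to 0.79 nM. CellTiter-Glo One luminescence was read after 48 h at 37°C. Viability is reported as a per-plate percentage of DMSO wells, with cell-free wells as background.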
# [1] = HPLM + 10% dialyzed FBS, 0.000781 µM
# [2] = HPLM + 10% dialyzed FBS, 0.00234 µM
# [3] = HPLM + 10% dialyzed FBS, 0.00702 µM
# [4] = HPLM + 10% dialyzed FBS, 0.0211 µM
# [5] = HPLM + 10% dialyzed FBS, 0.0632 µM
# [6] = HPLM + 10% dialyzed FBS, 0.19 µM
# [7] = HPLM + 10% dialyzed FBS, 0.569 µM
# [8] = HPLM + 10% dialyzed FBS, 1.71 µM
# [9] = HPLM + 10% dialyzed FBS, 5.12 µM
# [10] = HPLM + 10% dialyzed FBS, 15.4 µM
# [11] = HPLM + 10% dialyzed FBS, 46.1 µM
# [12] = RPMI 5 mM glucose + 10% FBS, 0.000781 µM
# [13] = RPMI 5 mM glucose + 10% FBS, 0.00234 µM
# [14] = RPMI 5 mM glucose + 10% FBS, 0.00702 µM
# [15] = RPMI 5 mM glucose + 10% FBS, 0.0211 µM
# [16] = RPMI 5 mM glucose + 10% FBS, 0.0632 µM
# [17] = RPMI 5 mM glucose + 10% FBS, 0.19 µM
# [18] = RPMI 5 mM glucose + 10% FBS, 0.569 µM
# [19] = RPMI 5 mM glucose + 10% FBS, 1.71 µM
# [20] = RPMI 5 mM glucose + 10% FBS, 5.12 µM
# [21] = RPMI 5 mM glucose + 10% FBS, 15.4 µM
# [22] = RPMI 5 mM glucose + 10% FBS, 46.1 µM
# [23] = RPMI 5 mM glucose + 10% dialyzed FBS, 0.000781 µM
# [24] = RPMI 5 mM glucose + 10% dialyzed FBS, 0.00234 µM
# [25] = RPMI 5 mM glucose + 10% dialyzed FBS, 0.00702 µM
# [26] = RPMI 5 mM glucose + 10% dialyzed FBS, 0.0211 µM
# [27] = RPMI 5 mM glucose + 10% dialyzed FBS, 0.0632 µM
# [28] = RPMI 5 mM glucose + 10% dialyzed FBS, 0.19 µM
# [29] = RPMI 5 mM glucose + 10% dialyzed FBS, 0.569 µM
# [30] = RPMI 5 mM glucose + 10% dialyzed FBS, 1.71 µM
# [31] = RPMI 5 mM glucose + 10% dialyzed FBS, 5.12 µM
# [32] = RPMI 5 mM glucose + 10% dialyzed FBS, 15.4 µM
# [33] = RPMI 5 mM glucose + 10% dialyzed FBS, 46.1 µM
SMILES,cell viability [1] [%],cell viability [2] [%],cell viability [3] [%],cell viability [4] [%],cell viability [5] [%],cell viability [6] [%],cell viability [7] [%],cell viability [8] [%],cell viability [9] [%],cell viability [10] [%],cell viability [11] [%],cell viability [12] [%],cell viability [13] [%],cell viability [14] [%],cell viability [15] [%],cell viability [16] [%],cell viability [17] [%],cell viability [18] [%],cell viability [19] [%],cell viability [20] [%],cell viability [21] [%],cell viability [22] [%],cell viability [23] [%],cell viability [24] [%],cell viability [25] [%],cell viability [26] [%],cell viability [27] [%],cell viability [28] [%],cell viability [29] [%],cell viability [30] [%],cell viability [31] [%],cell viability [32] [%],cell viability [33] [%]
CC(C)C[C@H](NC(=O)[C@H](CCc1ccccc1)NC(=O)CN1CCOCC1)C(=O)N[C@@H](Cc1ccccc1)C(=O)N[C@@H](CC(C)C)C(=O)[C@@]1(C)CO1,86.2,96.7,95.1,86.1,5.6,5.9,5.35,4.68,1.59,-0.411,-0.285,83.1,96.3,92.7,46.1,4.86,4.74,4.53,4.03,2.11,-0.0452,-0.307,78.8,94.4,91.2,54.1,5.27,4.96,4.93,3.8,1.93,-0.204,-0.46
COc1cc2ncnc(Nc3ccc(F)c(Cl)c3)c2cc1NC(=O)/C=C/CN1CCCCC1,109,108,103,106,107,97.6,106,90.1,85.4,79.1,67.9,106,106,103,101,102,106,102,92.6,85.7,82.9,75.2,101,109,94.5,109,105,102,104,88.4,80.9,76,67.8
O=C(c1ccc(Nc2nccc(-c3cc4ccccc4s3)n2)cc1)N1CCC(N2CCCC2)CC1,115,109,116,112,120,107,103,98.8,99.5,67.7,3.26,117,125,119,117,114,107,112,112,105,82.9,6.91,113,119,115,119,123,106,113,107,101,63.8,7
O=C(NC[C@H](O)CO)c1ccncc1Nc1ccc(I)cc1F,100,112,71.4,113,107,105,102,102,97.5,91.4,87.5,101,118,66.3,106,96,90.4,98.6,91.4,88.7,78.6,59.6,94.9,119,73.4,118,99.5,109,105,104,90.2,96.6,76.5
Nc1nc(N)c2nc(CNc3ccc(C(=O)NC(CCC(=O)O)C(=O)O)cc3)cnc2n1 (stereo unspecified),103,111,110,114,59.2,47.7,31,31.8,44,39.6,29.7,103,103,103,123,71.2,37.9,46.6,47,38.5,51.2,61,105,95.5,105,112,86,28.1,25.8,24,25.9,26.2,26.2
Cc1[nH]c2ccccc2c1CCNCc1ccc(/C=C/C(=O)NO)cc1,109,106,111,120,121,103,63.1,7.05,6.95,7.08,7.23,106,120,108,107,128,109,48.2,6.65,6.49,8.3,6.44,114,109,117,111,122,113,74.4,6.85,6.73,6.95,7.21
COC(=O)[C@@H]1[C@H]2C[C@H]3c4[nH]c5ccccc5c4CCN3C[C@@H]2CC[C@@H]1O,113,118,122,116,122,128,121,117,20.8,14.4,12.4,–,–,–,–,–,–,–,–,–,–,–,103,114,114,124,111,124,127,128,70.6,32.9,17.9
C[S+](=O)([O-])N1CCc2c(-c3cnc(N)nc3)nc(N3CCOCC3)nc21,110,115,110,120,111,119,115,93.6,104,107,98.5,105,97.8,114,106,102,108,103,73,84.8,79.6,71.8,98.2,116,110,119,112,115,107,85.6,103,85.4,78.5
C=C[C@H]1CN2CC[C@H]1C[C@H]2[C@H](O)c1ccnc2ccc(OC)cc12,100,98.6,93.6,104,96.3,100,104,105,108,110,100,95.9,104,99.4,95.7,93.6,101,106,109,129,111,75.4,89.9,89,91.7,93.1,96.3,96.7,94.1,95.3,102,101,81
C/C=C1\C2C=C(C)CC1(N)c1ccc(=O)[nH]c1C2 (stereo unspecified),102,108,107,107,109,109,107,104,96.3,106,79.2,105,110,112,106,113,101,98.3,91.2,98.9,98.7,92.8,110,98,108,102,94.9,107,98.4,97.1,88.5,95.2,90.9
CC(C)=CC[C@@H](O)C/1=C/C(=O)C2=C(O)C=CC(=C2C1=O)O,90.8,107,111,108,109,109,118,111,104,17.1,8.56,93.6,113,114,120,120,114,120,106,108,22.9,8.56,92.7,106,108,108,113,107,118,117,113,55.2,21
C=C(C)[C@H]1Cc2c(ccc3c2O[C@@H]2COc4cc(OC)c(OC)cc4[C@@H]2C3=O)O1,101,108,107,111,95.9,118,90.6,76.5,56.1,19.7,17.7,108,113,104,106,88.2,99.5,73.6,60.3,44.3,17.3,10.1,98.6,106,110,107,102,95.7,76.6,69.3,59.9,34,24.1
OC1=CC2=C(C(=C1)O)C(=O)\C=C(/O2)C3=CC=CC=C3,104,102,105,108,110,108,103,110,104,77.9,3.28,104,104,107,111,115,110,101,107,103,82.9,3.34,99.5,103,102,99.9,103,100,114,104,103,84.4,4.92
CC/1=C(/N2[C@H](SC1)[C@H](NC(=O)[C@H](N)\C3=C\C\C=C/C3)C2=O)C(O)=O,96.8,117,116,121,126,115,111,126,128,120,113,99.5,91.8,110,116,103,120,117,119,120,124,122,111,112,116,112,118,118,118,117,125,133,125
